Test results published in patent publication US20050154230A1, “Urea derivatives” (Bayer HealthCare AG, priority 2001, published 2005).
pIC50: −log10 of the molar value. Read-outs that look alike come from different tables or passages of the source.

Experiments:
human VR1 = target: T1, human VR1 (Homo sapiens, UniProt Q8NER1); assay: Capsaicin-induced Ca2+ influx in the human VR1-transfected CHO cell line (Assay 1); assay type: cell-based
T1 construct: expressed in transfected cells
Procedure: [Measurement of Capsaicin-Induced Ca^2+ Influx in the Human VR1-Transfected CHO Cell Line] (Assay 1)
(1) Establishment of the Human VR1-CHOluc9aeq Cell Line
The cloned hVR1 cDNA was constructed with pcDNA3 vector and transfected into a CHOluc9aeq cell line. The cell line contains aequorin and CRE-luciferase reporter genes as read-out signals. The transfectants were cloned by limiting dilution in selection medium (DMEM/F12 medium (Gibco BRL) supplemented with 10% FCS, 1.4 mM Sodium pyruvate, 20 mM HEPES, 0.15% Sodium bicarbonate, 100 U/ml penicillin, 100 μg/ml streptomycin, 2 mM glutamine, non-essential amino acids and 2 mg/ml G418). Ca^2+ influx was examined in the capsaicin-stimulated clones. […] The human VR1-CHOluc9aeq cells were maintained in the selection medium and passaged every 3-4 days at 1-2.5×10^5 cells/flask ([…]).
(2) Measurement of Ca^2+ Influx Using FDSS-3000
Human VR1-CHOluc9aeq cells were suspended in a culture medium which is the same as the selection medium except for G418 and seeded at a density of 1,000 cells per well into 384-well plates (black walled clear-base/Nalge Nunc International). […] After washing twice with assay buffer the cells were incubated with a test compound or vehicle for 20 min at 25° C. […] Integral R was calculated and compared with controls.

[1] = human VR1-CHOluc9aeq cells, 10 nM capsaicin, compound purity about 40 to 90%, read-out: hVR1 class

T1 sequence (Q8NER1 whole entry): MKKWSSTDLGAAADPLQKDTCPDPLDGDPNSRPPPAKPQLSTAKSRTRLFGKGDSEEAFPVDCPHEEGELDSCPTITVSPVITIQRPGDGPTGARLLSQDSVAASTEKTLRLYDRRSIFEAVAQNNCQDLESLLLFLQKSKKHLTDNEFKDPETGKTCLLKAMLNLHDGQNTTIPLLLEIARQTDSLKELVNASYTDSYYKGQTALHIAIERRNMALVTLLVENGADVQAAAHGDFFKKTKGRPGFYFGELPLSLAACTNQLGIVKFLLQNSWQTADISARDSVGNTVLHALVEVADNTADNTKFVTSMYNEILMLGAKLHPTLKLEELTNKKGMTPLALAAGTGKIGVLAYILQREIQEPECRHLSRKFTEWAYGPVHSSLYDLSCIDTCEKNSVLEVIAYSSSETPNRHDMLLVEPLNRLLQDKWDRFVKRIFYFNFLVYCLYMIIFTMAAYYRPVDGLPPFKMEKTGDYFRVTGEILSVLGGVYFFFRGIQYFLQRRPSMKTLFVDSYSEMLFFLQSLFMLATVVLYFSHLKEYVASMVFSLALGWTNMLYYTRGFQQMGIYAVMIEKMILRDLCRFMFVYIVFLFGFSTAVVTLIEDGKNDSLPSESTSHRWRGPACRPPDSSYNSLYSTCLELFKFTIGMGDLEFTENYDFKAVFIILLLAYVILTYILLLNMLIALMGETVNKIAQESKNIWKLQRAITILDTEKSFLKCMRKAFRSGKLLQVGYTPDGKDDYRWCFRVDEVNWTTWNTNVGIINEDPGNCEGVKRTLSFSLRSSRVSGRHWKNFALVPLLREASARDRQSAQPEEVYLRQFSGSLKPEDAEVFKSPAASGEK

SMILES | melting point | pIC50 (human VR1; [1]) | pIC50 (human VR1; human VR1-CHOluc9aeq cells, 10 nM capsaicin, compound purity about 40 to 90%, read-out: Activity grade) | pIC50 (human VR1)
N#Cc1ccc(-c2ccc(NC(=O)Nc3ccccc3CCO)cc2)cc1 [Example 161] | 213 to 215 °C | 6.00 to 6.30 | – | –
O=C(Nc1cccc(-c2ccc(Cl)c(F)c2)c1)Nc1ccccc1CCO [Example 249] | 180 °C | > 7.00 | – | –
Cc1ccc(NC(=O)Nc2ccccc2CCO)cc1F [Example 181] | 184 to 186 °C | 6.00 to 6.30 | – | –
O=C(Nc1cccc(-c2ccccc2Cl)c1)Nc1ccc(Cl)cc1CCO [Example 245] | 191 to 193 °C | 6.30 to 7.00 | – | –
Cc1ccc(NC(=O)Nc2ccccc2CCO)c(C)c1 [Example 133] | 181 °C | 6.00 to 6.30 | – | –
COc1ccc(-c2cccc(NC(=O)Nc3ccccc3CCO)c2)cc1 [Example 204] | 166 °C | > 7.00 | – | –
O=C(Nc1cccc(-c2ccc(F)c(Cl)c2)c1)Nc1ccccc1CCO [Example 215] | 176 °C | > 7.00 | – | –
COc1ccc(F)cc1-c1cccc(NC(=O)Nc2ccccc2CCO)c1 [Example 235] | 158 to 160 °C | > 7.00 | – | –
COc1cc(CNC(=O)Nc2cccc(C)c2)ccc1O [Example 82] | 181 °C | – | – | 6.30 to 7.00
O=C(Nc1ccc(-c2ccccc2)s1)Nc1ccccc1CCO [Example 243] | 159 °C | > 7.00 | – | –
O=C(Nc1ccccc1Cl)Nc1ccccc1CCO [Example 104] | 173 to 175 °C | 6.00 to 6.30 | – | –
O=C(Nc1ccc(Nc2ccccc2)cc1)Nc1ccccc1CCO [Example 159] | 150 to 151 °C | 6.00 to 6.30 | – | –
COc1ccc(OC)c(NC(=O)Nc2ccccc2CCO)c1 [Example 151] | 157 to 158 °C | 6.00 to 6.30 | – | –
O=C(Nc1cccc(F)c1)Nc1ccccc1CCO [Example 132] | 166 °C | 6.00 to 6.30 | – | –
O=C(NCc1ccccc1F)Nc1ccccc1CCO [Example 119] | 141 to 143 °C | 6.00 to 6.30 | – | –
O=C(Nc1ccccc1CCO)Nc1cccc2ccc(O)cc12 [Example 166] | 212 °C | 6.00 to 6.30 | – | –
Nc1ccc2c(c1)C(NC(=O)Nc1ccc(Cl)c(C(F)(F)F)c1)CCC2 (stereo not shown) [Example 96] | 178 °C | 6.00 to 6.30 | – | –
O=C(Nc1cccc(-c2cccc(F)c2)c1)Nc1ccccc1CCO [Example 211] | 188 °C | > 7.00 | – | –
CC(=O)c1cccc(NC(=O)Nc2ccccc2CCO)c1 [Example 117] | 177 °C | 6.00 to 6.30 | – | –

SMILES | melting point | pIC50 (human VR1; [1]) | pIC50 (human VR1; human VR1-CHOluc9aeq cells, 10 nM capsaicin, compound purity about 40 to 90%, read-out: Activity grade) | pIC50 (human VR1)
COc1cccc(NC(=O)Nc2ccccc2CCO)c1 [Example 135] | 169 °C | 6.00 to 6.30 | – | –
O=C(Nc1cc(Cl)nc(Cl)c1)Nc1ccccc1CCO [Example 154] | 194 °C | 6.00 to 6.30 | – | –
CCOC(=O)c1cccc(NC(=O)Nc2ccccc2CCO)c1 [Example 100] | 152 to 153 °C | 6.30 to 7.00 | – | –
O=C(Nc1cccc(-c2ccccc2)c1)Nc1ccccc1CCO [Example 3-1, N-(1,1′-biphenyl-3-yl)-N′-[2-(2-hydroxyethyl)phenyl]urea] | 196 to 198 °C | – | > 7.00 | –
O=C(Nc1ccc(C(F)(F)F)cc1)Nc1ccccc1CCO [Example 108] | 178 to 180 °C | 6.30 to 7.00 | – | –
O=C(Nc1ccc(F)c(C(F)(F)F)c1)Nc1ccccc1CCO [Example 184] | 158 to 161 °C (dec.) | > 7.00 | – | –
Cc1ccc(CNC(=O)Nc2ccccc2CCO)cc1 [Example 125] | 181 to 183 °C | 6.00 to 6.30 | – | –
O=C(Nc1ccc2c(c1)Cc1ccccc1-2)Nc1ccccc1CCO [Example 169] | > 250 °C | > 7.00 | – | –
COc1cc(CNC(=O)Nc2ccc(F)cc2)ccc1O [Example 56] | 211 to 212 °C | 6.00 to 6.30 | – | –
O=C(Nc1ccc(Oc2ccccc2)cc1)Nc1ccccc1CCO [Example 99] | 133 to 135 °C | > 7.00 | – | –
N#Cc1cccc(-c2cccc(NC(=O)Nc3ccccc3CCO)c2)c1 [Example 232] | 186 to 187 °C | > 7.00 | – | –
CSc1ccc(-c2cccc(NC(=O)Nc3ccccc3CCO)c2)cc1 [Example 206] | 191 °C | > 7.00 | – | –
O=C(Nc1cccc(-c2ccccc2Cl)c1)Nc1ccccc1CCO [Example 196] | 153 °C | > 7.00 | – | –
COc1cc(-c2cccc(NC(=O)Nc3ccccc3CCO)c2)cc(OC)c1OC [Example 237] | 81 to 83 °C | 6.30 to 7.00 | – | –
COc1cc(CNC(=O)Nc2ccc(C)cc2C)ccc1O [Example 62] | 184 °C | 6.00 to 6.30 | – | –
O=C(NCc1ccc(Br)cc1)Nc1ccccc1CCO [Example 103] | 198 to 200 °C | 6.30 to 7.00 | – | –
Cc1ccccc1CNC(=O)Nc1ccccc1CCO [Example 123] | 186 to 188 °C | 6.00 to 6.30 | – | –
O=C(Nc1ccccc1CCO)Nc1cccc2ccccc12 [Example 149] | 188 to 191 °C (dec.) | 6.00 to 6.30 | – | –
O=C(Nc1ccc(N2CCCCC2)cc1)Nc1ccccc1CCO [Example 168] | 188 °C | 6.00 to 6.30 | – | –

Continued, in another order:

melting point | pIC50 (human VR1; [1]) | pIC50 (human VR1; human VR1-CHOluc9aeq cells, 10 nM capsaicin, compound purity about 40 to 90%, read-out: Activity grade) | SMILES | pIC50 (human VR1)
213 °C | > 7.00 | – | Cc1cccc(NC(=O)NCc2ccc(C(F)(F)F)cc2)c1CCO [Example 258] | –
196 °C | > 7.00 | – | CCOC(=O)c1ccc(-c2cccc(NC(=O)Nc3ccccc3CCO)c2)cc1 [Example 225] | –
154 °C | 6.00 to 6.30 | – | COc1ccccc1NC(=O)Nc1ccccc1CCO [Example 134] | –
178 °C | 6.00 to 6.30 | – | O=C(Nc1ccc([N+](=O)[O-])cc1)Nc1ccccc1CCO [Example 110] | –
175 °C | > 7.00 | – | O=C(Nc1cccc(-c2cccc(Cl)c2)c1)Nc1ccccc1CCO [Example 195] | –
166 °C | > 7.00 | – | O=C(Nc1cccc(-c2cccc(OC(F)(F)F)c2)c1)Nc1ccccc1CCO [Example 239] | –
186 °C | 6.00 to 6.30 | – | COc1ccc(NC(=O)Nc2ccccc2CCO)cc1 [Example 136] | –
180 °C | > 7.00 | – | O=C(Nc1cccc(-c2cccc(C(F)(F)F)c2)c1)Nc1ccccc1CCO [Example 238] | –
193 to 194 °C | 6.30 to 7.00 | – | O=C(Nc1ccc(F)c(Cl)c1)Nc1ccccc1CCO [Example 190] | –
164 to 166 °C | 6.30 to 7.00 | – | O=C(Nc1ccc(Cc2ccccc2)cc1)Nc1ccccc1CCO [Example 158] | –
126 to 129 °C | > 7.00 | – | COc1ccc(Cl)cc1-c1cccc(NC(=O)Nc2ccccc2CCO)c1 [Example 228] | –
184 °C | > 7.00 | – | O=C(Nc1cccc(-c2ccc(OC(F)(F)F)cc2)c1)Nc1ccccc1CCO [Example 240] | –
185 °C | 6.00 to 6.30 | – | O=C(Nc1ccc(F)c([N+](=O)[O-])c1)Nc1ccccc1CCO [Example 111] | –
183 to 185 °C | 6.00 to 6.30 | – | O=C(NCc1ccccc1Cl)Nc1ccccc1CCO [Example 126] | –
195 to 197 °C | 6.30 to 7.00 | – | O=C(Nc1ccc2ccccc2c1)Nc1ccccc1CCO [Example 102] | –
183 °C | 6.00 to 6.30 | – | O=C(Nc1ccc(F)cc1)Nc1ccccc1CCO [Example 131] | –
234 to 236 °C | 6.00 to 6.30 | – | O=C(Nc1ccc2[nH]ncc2c1)Nc1ccccc1CCO [Example 221] | –
176 to 177 °C | 6.00 to 6.30 | – | CSc1ccc(NC(=O)Nc2ccccc2CCO)cc1 [Example 156] | –
180 to 182 °C | 6.00 to 6.30 | – | O=C(Nc1ccccc1CCO)Nc1ccccc1C(F)(F)F [Example 152] | –
149 to 150 °C | 6.30 to 7.00 | – | CC(C)c1ccc(NC(=O)Nc2ccccc2CCO)cc1 [Example 101] | –
209 °C | > 7.00 | – | O=C(Nc1ccc(Cl)c(C(F)(F)F)c1)Nc1cccc(Br)c1CCO [Example 255] | –
188 to 190 °C | 6.00 to 6.30 | – | O=C(Nc1cccc(Cl)c1)Nc1ccccc1CCO [Example 105] | –
178 to 180 °C | 6.30 to 7.00 | – | COc1ccc(-c2ccccc2)cc1NC(=O)Nc1ccccc1CCO [Example 173] | –
176 °C | 6.00 to 6.30 | – | CC(NC(=O)Nc1ccccc1CCO)c1cccc2ccccc12 (stereo not shown) [Example 155] | –
167 °C | > 7.00 | – | Cc1ccc(C)c(-c2cccc(NC(=O)Nc3ccccc3CCO)c2)c1 [Example 197] | –
197 to 198 °C | > 7.00 | – | O=C(Nc1cccc(-c2ccc([N+](=O)[O-])cc2)c1)Nc1ccccc1CCO [Example 229] | –
177.5 °C | 6.00 to 6.30 | – | COc1ccc2c(c1)C(NC(=O)Nc1ccc(F)cc1)CCC2 (stereo not shown) [Example 53] | –
